From patent EP0199985A2, “Benzoic-acid derivatives, pharmaceutical preparations comprising them and process for preparing these compounds and pharmaceutical preparations” (Grünenthal GmbH, priority 1985, dated 1986)

Target: T1, 5-Lipoxygenase (Rattus norvegicus, UniProt P12527)
T1 construct: basophile leukämische Leukozyten der Ratte in-vitro gezüchtet; endogenous in cells; whole cells suspended in phosphate buffer, stimulated with A 23187
T1 sequence (P12527 1-673): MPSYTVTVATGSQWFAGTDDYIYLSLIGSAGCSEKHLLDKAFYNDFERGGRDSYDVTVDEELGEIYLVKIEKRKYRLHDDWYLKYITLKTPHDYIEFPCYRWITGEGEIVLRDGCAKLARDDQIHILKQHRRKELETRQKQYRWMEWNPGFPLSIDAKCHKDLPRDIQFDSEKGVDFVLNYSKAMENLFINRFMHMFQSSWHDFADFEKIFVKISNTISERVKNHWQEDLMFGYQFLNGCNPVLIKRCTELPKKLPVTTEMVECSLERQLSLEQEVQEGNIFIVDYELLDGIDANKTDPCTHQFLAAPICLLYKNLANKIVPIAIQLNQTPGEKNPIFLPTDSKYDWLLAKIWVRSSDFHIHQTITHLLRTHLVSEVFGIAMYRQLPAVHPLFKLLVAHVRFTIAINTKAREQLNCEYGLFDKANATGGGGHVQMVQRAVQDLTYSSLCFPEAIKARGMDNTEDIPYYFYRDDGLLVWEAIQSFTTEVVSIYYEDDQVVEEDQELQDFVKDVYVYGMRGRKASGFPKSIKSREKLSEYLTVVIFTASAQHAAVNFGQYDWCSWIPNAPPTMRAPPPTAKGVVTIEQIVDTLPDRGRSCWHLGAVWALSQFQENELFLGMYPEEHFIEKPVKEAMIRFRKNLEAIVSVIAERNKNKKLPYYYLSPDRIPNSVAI
Experiment: 5-lipoxygenase inhibition in cultured rat basophilic leukemic leukocytes (radiolabelled arachidonic acid, TLC of 5-HETE and LTB4)
Type: cell-based, Ratte
Details: rat basophilic leukemic leukocytes in 50 mM potassium phosphate buffer pH 7.4; indomethacin 10 µM, CaCl2 2 mM, labelled arachidonic acid + ionophore A 23 187, 5 min, room temperature; formation of 5-HETE and LTB4
Method: Zur Ermittlung der 5-Lipoxygenasehemmung wurden basophile leukämische Leukozyten der Ratte in-vitro gezüchtet und nach Erreichen einer Zelldichte von ca. 10^6 Zellen pro ml bei 400 g vom Nährmedium abzentrifugiert. Der Rückstand wurde in 50 mM Kaliumphosphatpuffer vom pH 7,4 so suspendiert, daß die Zellzahl […] Zellen pro ml betrug.
Jeweils 1 ml dieser Suspension wurde mit Indomethacin (10 uM) und Calciumchlorid (2 mM) versetzt und in An-oder Abwesenheit einer der Testsubstanzen mit radioaktiv markierter Arachi- 5 donsäure und dem Calcium-lonophor A 23 187 bei Raumtemperatur für 5 Minuten inkubiert. Nach Ansäuern auf pH 5 wurden die unter dem Einfluß der 5-Lipoxygenase gebildeten Arachidonsäuremetaboliten mit Ethylacetat extrahiert und 10 mit einem für die Leukotriene geeigneten Fließmittelgemisch dünnschichtchromatographisch getrennt [vgl. Jakschik et al. Biochem. Biophys. Res. Commun. 102, 624 (1981)]. Die Radioaktivitätsverteilung auf die verschiedenen Metaboliten 15 wurde mit Hilfe eines Dünnschichtscanners gemessen. Setzt man die prozentualen Bildungsanteile der 5-Lipoxygenaseprodukte (5-HETE und LTB4) zu der Menge bzw. Konzentration der eingesetzten Gesamtradioaktivität bzw. der Testsubstanz 20 der Formel I in Relation, so läßt sich der IC50-Wert-(d. h. die Konzentration, die eine 50 %-ige Hemmung der 5-Lipoxygenase bewirkt) ermitteln.

IC50 [nM] | Compound
2400 | CCCN(CCC)C(=O)c1cccc(C#CCCCCCCC#CCO)c1 [Beispiel 24g, 3-(11'-Hydroxy-undeca-1',9'-diin-1'-yl)-benzoesäure-[N,N-di-(n-propyl)]-amid]
1600 | CC(C)N(C(=O)c1cccc(C#CCCCCCCC#CCO)c1)C(C)C [Beispiel 24n, 3-(11'-Hydroxy-undeca-1',9'-diin-1'-yl)-benzoesäure-[N,N-di-(isopropyl)]-amid]
1000 | CCCCCC(O)/C=C/C=C\C/C=C\C/C=C\c1ccc(C(=O)OC)cc1 (stereo not drawn) [Beispiel 7, 4-(11'-Hydroxy-hexadeca-1'Z,4'Z,7'Z,9'E-tetraen-1'-yl)-benzoesäuremethylester]
1700 | CCCCCC(O)/C=C/C#CCC#CCC#Cc1cccc(C(=O)OC)c1 (stereo not drawn) [Beispiel 1, 3-(11'-Hydroxy-hexadec-9'E-en-1',4',7'-triin-1'-yl)-benzoesäuremethylester]
2300 | O=C(c1cccc(C#CCCCCCCC#CCO)c1)N1CCCCC1 [Beispiel 17, 3-(11 '-Hydroxy-undeca-1',9'-diin-1'-yl)-benzoesäurepiperidid]
200 | CN(O)C(=O)c1ccc(C#CCCCCCCC#CCO)cc1 [Beispiel 11, 4-(11'-Hydroxy-undeca-1',9'-diin-1'-yl)-N-methylbenzhydroxamsäure]
500 | CN(O)C(=O)c1cccc(C#CCCCCCCC#CC(O)C2CCCCC2)c1 (stereo not drawn) [Beispiel 23biii, 3-(11'-Cyclohexyl-11'-hydroxy-undeca-1',9'-diin-1'-yl)-N-methylbenzhydroxamsäure]
1400 | COC(=O)c1cccc(C#CCC#CCC#C/C=C/C(O)C2CCCCC2)c1 (stereo not drawn) [Beispiel 4, 3-(11'-Cyclohexyl-11'-hydroxy-undec-9'E-en-1',4',7-triin-1'-yl)-benzoesäuremethylester]
1000 | CN(O)C(=O)c1cccc(C#CCCCCCCC#CCO)c1 [Beispiel 16]
7500 | CCOC(=O)c1cccc(C#CCCCCCCC#CCO)c1 [Beispiel 18, 3-(11 '-Hydroxy-undeca-1',9'-diin-1-yl)-benzoesäureethylester]

Compound | IC50 [nM]
CCCCCNC(=O)c1cccc(C#CCCCCCCC#CCOC(C)=O)c1 [Beispiel 27a, 3-(11 '-Acetoxy-undeca-1',9'-diin-1'-yl)-benzoesäure-n-pentylamid] | 7000
CC(=O)ON(C)C(=O)c1cccc(C#CCCCCCCC#CCO)c1 [Beispiel 24l, 3-(11'-Hydroxy-undeca-1',9'-diin-1'-yl)-benzoesäure-(N-methyl-N-acetoxy)-amid] | 500
